From patent publication US9617219B2, “Polymorphs of 3-difluoromethyl-1-methyl-1 H-pyrazole-4-carboxylic acid (9-dichloro-methylene-1,2,3,4-tetrahydro-1,4-methano-naphthalen-5-yl)-amide” (Syngenta Participations AG, priority 2014, dated 2017)
One block for each compound: values may come before it.

Key:
[1] = Competitive slurries of anhydrous Form 1 and hydrate in water/methanol mixtures, stable form determined by DSC; type: physicochemical; design: key to stable crystal form: A indicates the anhydrous form is the stable form; H indicates the hydrate is the stable form; U data was inconclusive
Method: DSC was carried out using a Mettler Toledo DSC 820 or DSC1. A sample loading of around 5 mg was used and this was heated from 40° C. to 250° C. at a rate of 10° C./minute on the DSC820 or from 25° C. to 250° C. at a rate of 10° C./minute on the DSC1. The lid of the DSC crucible was pierced to allow the escape of any gas formed during the heating of the sample. The thermodynamic stability of hydrated crystals depends not only on temperature but also on the abundance of water, or more precisely, the water activity (aw), which is equivalent to the relative humidity. In order to determine under which conditions the anhydrous polymorph Form 1 and the hydrate are stable, a series of competitive slurries containing both crystal forms were prepared in different water/methanol mixtures and at a range of temperatures. The resulting crystals were analysed by DSC to determine the stable form under the given conditions. […] From the data above, the water/methanol compositions were converted into water activities and a phase diagram was constructed.

[2] = Stability of suspension concentrate formulation of anhydrous Form 1 contaminated with 5% hydrated form, temperature cycling; type: physicochemical; conditions: SC of anhydrous Form 1 with 5% hydrated form, cycling 0° C. to 40° C. over 12 hours, after two weeks
Method: Two standard suspension concentrate (SC) formulations were separately prepared using the anhydrous Form 1 polymorph and the hydrated polymorph. The SC of the anhydrous Form 1 was contaminated with 5% of the hydrated form and placed in a temperature cycling oven varying from 0° C. to 40° C. over 12 hours. After two weeks, the sample was inspected. […] Some crystals were removed from the formulation and dried.

- stable crystal form ([1]; 1% water in methanol, 5 °C): A
- stable crystal form ([1]; 1% water in methanol, 20 °C): A
- stable crystal form ([1]; 1% water in methanol, 35 °C): A
- stable crystal form ([1]; 1% water in methanol, 40 °C): A
- stable crystal form ([1]; 1% water in methanol, 45 °C): A
- stable crystal form ([1]; 1% water in methanol, 60 °C): A
- stable crystal form ([1]; 5% water in methanol, 5 °C): A
- stable crystal form ([1]; 5% water in methanol, 20 °C): A
- stable crystal form ([1]; 5% water in methanol, 35 °C): A
- stable crystal form ([1]; 5% water in methanol, 40 °C): A
- stable crystal form ([1]; 5% water in methanol, 45 °C): A
- stable crystal form ([1]; 5% water in methanol, 60 °C): A
- stable crystal form ([1]; 7.5% water in methanol, 5 °C): H
- stable crystal form ([1]; 7.5% water in methanol, 15 °C): H
- stable crystal form ([1]; 10% water in methanol, 5 °C): H
- stable crystal form ([1]; 10% water in methanol, 15 °C): H
- stable crystal form ([1]; 10% water in methanol, 20 °C): U
- stable crystal form ([1]; 10% water in methanol, 30 °C): U
- stable crystal form ([1]; 10% water in methanol, 35 °C): A
- stable crystal form ([1]; 10% water in methanol, 40 °C): A
- stable crystal form ([1]; 10% water in methanol, 45 °C): A
- stable crystal form ([1]; 10% water in methanol, 60 °C): A
- stable crystal form ([1]; 12.5% water in methanol, 5 °C): H
- stable crystal form ([1]; 15% water in methanol, 5 °C): H
- stable crystal form ([1]; 15% water in methanol, 15 °C): H
- stable crystal form ([1]; 15% water in methanol, 50 °C): H
- stable crystal form ([1]; 15% water in methanol, 60 °C): A
- stable crystal form ([1]; 20% water in methanol, 20 °C): H
- stable crystal form ([1]; 20% water in methanol, 30 °C): H
- stable crystal form ([1]; 20% water in methanol, 35 °C): H
- stable crystal form ([1]; 20% water in methanol, 40 °C): H
- stable crystal form ([1]; 20% water in methanol, 45 °C): H
- stable crystal form ([1]; 20% water in methanol, 60 °C): H
- stable crystal form ([1]; 25% water in methanol, 50 °C): H
- stable crystal form ([1]; 25% water in methanol, 60 °C): H
- stable crystal form ([1]; 35% water in methanol, 60 °C): H
SMILES: Cn1cc(C(=O)Nc2cccc3c2C2CCC3C2=C(Cl)Cl)c(C(F)F)n1 (racemic) [compound of formula (I), 3-difluoromethyl-1-methyl-1H-pyrazole-4-carboxylic acid (9-dichloromethylene-1,2,3,4-tetrahydro-1,4-methano-naphthalen-5-yl)-amide]

- polymorphic conversion (powder X-ray diffraction) [2]: fully converted to the hydrated form
- size of the crystals (microscopy) [2]: increased substantially
SMILES: Cn1cc(C(=O)Nc2cccc3c2C2CCC3C2=C(Cl)Cl)c(C(F)F)n1 (stereo not drawn) [anhydrous polymorph Form 1, 3-difluoromethyl-1-methyl-1H-pyrazole-4-carboxylic acid (9-dichloromethylene-1,2,3,4-tetrahydro-1,4-methano-naphthalen-5-yl)-amide]

- temperature required to dehydrate the hydrate ([1]; normal ambient relative humidities, from phase diagram (FIG. 3)): > 60 °C
SMILES: Cn1cc(C(=O)Nc2cccc3c2C2CCC3C2=C(Cl)Cl)c(C(F)F)n1 (stereo not drawn) [hydrate of compound (I), 3-difluoromethyl-1-methyl-1H-pyrazole-4-carboxylic acid (9-dichloromethylene-1,2,3,4-tetrahydro-1,4-methano-naphthalen-5-yl)-amide]
